Laboratory results reported in US4120953A, “Novel 2,2', 2"-[s-phenenyltris(sulfonylimino)tris]-[2-deoxy-α-D-glucopyranose] , dodecakis (H-sulfate) compounds and their salts” (American Cyanamid Company, priority 1977, dated 1978).
Where a name gives a salt, the structure may show the parent alone.

What was measured:
[1] = system: shunt pathway activated by cobra venom factor; assay: Test, Code 036 (C-Shunt inhibitor); format: cell-based; conditions: serial two-fold dilution assay; lysis of fragile human erythrocytes in autologous serum
[2] = system: late components of human complement (C3-C9); assay: Test, Code 035 (C3-C9 inhibitor); format: biochemical; parameters: key: N = negative; conditions: serial two-fold dilution assay; protection of EAC 142 from lysis by human C3-C9
Protocol: (§1) This test measures the ability of activated human C1 to destroy fluid phase human C2 in the presence of C4 and appropriate dilutions of the test compound. An active inhibitor protects C2 from C1 and C4; (ii) Test, Code 035 (C3-C9 inhibitor) - This test determines the ability of the late components of human complement (C3-C9) to lyse EAC 142 in the presence of appropriate dilutions of the test compound. […] The lesion is measured in terms of diameter, edema and hemorrhage and the extent to which a combined index of these is inhibited by prior intraperitoneal injection of the test compound at […] is then reported, unless otherwise stated; (v) Forssman Shock Test -- Lethal shock is produced in guinea pigs by an i.v. injection of anti-Forssman antiserum and the harmonic mean death time of treated guinea pigs is compared with that of simultaneous controls; (vi) Complement Level Reduction Test -- In this test, the above dosed guinea pigs, or others, are bled for serum and the complement level is determined in undiluted serum by the capillary tube method of U.S. Pat. No. 3,876,376 and compared to undosed control guinea pigs; and (vii) Cap 50 Test -- Here, appropriate amounts of the test compound are added to a pool of guinea pig serum in vitro, after which the undiluted serum capillary tube assay referred to above is run. […]

activated human C1 = activated human C1 (Homo sapiens, UniProt P09871); assay: Test, Code 026 (C1 inhibitor); format: biochemical; conditions: serial two-fold dilution assay; higher well numbers indicate higher activity; protection of human C2 from C1 and C4
Protocol: as §1

SMILES | In Vitro Activity Shunt Inhibition 036 Wells [1] | In Vitro Activity C-Late 035 Wells [2] | In Vitro Activity C1 026 Wells (activated human C1)
O=S(=O)(O)OC[C@H]1O[C@H](OS(=O)(=O)O)[C@H](NS(=O)(=O)c2cc(S(=O)(=O)N[C@H]3[C@@H](OS(=O)(=O)O)O[C@H](COS(=O)(=O)O)[C@@H](OS(=O)(=O)O)[C@@H]3OS(=O)(=O)O)cc(S(=O)(=O)N[C@H]3[C@@H](OS(=O)(=O)O)O[C@H](COS(=O)(=O)O)[C@@H](OS(=O)(=O)O)[C@@H]3OS(=O)(=O)O)c2)[C@@H](OS(=O)(=O)O)[C@@H]1OS(=O)(=O)O [2,2',2"-[ s-Phenenyltris(sulfonylimino)]-tris[2-deoxy-α-D-gl] [2,2',2"-[s-Phenenyltris(sulfonylimino)]tris[2-deoxy-α-D-glucopyranose], dodecakis (H-sulfate) dodecasalt with trimethylamine] | +2 Wells | – | –
O=S(=O)(O)OC[C@H]1O[C@H](OS(=O)(=O)O)[C@H](NS(=O)(=O)c2cc(S(=O)(=O)N[C@H]3[C@@H](OS(=O)(=O)O)O[C@H](COS(=O)(=O)O)[C@@H](OS(=O)(=O)O)[C@@H]3OS(=O)(=O)O)cc(S(=O)(=O)N[C@H]3[C@@H](OS(=O)(=O)O)O[C@H](COS(=O)(=O)O)[C@@H](OS(=O)(=O)O)[C@@H]3OS(=O)(=O)O)c2)[C@@H](OS(=O)(=O)O)[C@@H]1OS(=O)(=O)O [2,2',2"-[s-Phenenyltris(sulfonylimino)]-tris[2-deoxy-α-D-glu] [2,2',2"-[s-Phenenyltris(sulfonylimino)]tris[2-deoxy-α-D-glucopyranose], dodecakis (H-sulfate) dodecasodium salt] | +1 Wells | – | –
O=S(=O)(O)OC[C@H]1O[C@H](OS(=O)(=O)O)[C@H](NS(=O)(=O)c2cc(S(=O)(=O)N[C@H]3[C@@H](OS(=O)(=O)O)O[C@H](COS(=O)(=O)O)[C@@H](OS(=O)(=O)O)[C@@H]3OS(=O)(=O)O)cc(S(=O)(=O)N[C@H]3[C@@H](OS(=O)(=O)O)O[C@H](COS(=O)(=O)O)[C@@H](OS(=O)(=O)O)[C@@H]3OS(=O)(=O)O)c2)[C@@H](OS(=O)(=O)O)[C@@H]1OS(=O)(=O)O [2,2',2"-[s-Phenenyltris(sulfonylimino)]tris[2-deoxy-α-D-glucopyranose], dodecakis (H-sulfate) dodecasalt with trimethylamine] | – | N | +7 Wells
